In the supplement of paper PMC5770543:
± gives the standard deviation.

Assays:
[1] = tested on: Plasmodium falciparum 3D7; test: EC50 growth inhibition (60 h, SYBR Green); conditions: stage: ring-stage start
[2] = tested on: Plasmodium falciparum 3D7; test: % inhibition of schizont-to-ring transition vs DMSO; higher = more inhibition
Summary of the method: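 Schizont-to-ring transition inhibition is the formation of new rings relative to vehicle controls. Tightly synchronised P. falciparum schizonts at about 40–42 hours post-invasion (1% parasitemia, 2.5% hematocrit, AlbuMAX-supplemented RPMI) were treated with compound at 1, 3 or 10 µM, alongside vehicle and positive controls. After glutaraldehyde fixation, Triton permeabilisation and Hoechst 33342 staining, at least 100,000 events were counted by flow cytometry, and values are the mean of three experiments.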

[3] = tested on: Toxoplasma gondii RH tachyzoites; test: % growth inhibition vs DMSO (48 h luciferase); higher = more inhibition; conditions: 10 µM;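 further: tested in triplicate wells of 96-well plates on confluent HFF monolayers, with 1% DMSO wells as negative control in four replicates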

| SMILES | EC50 growth inhibition [1] [nM] | % inhibition of schizont-to-ring transition ([2]; 1 µM) [%] | % inhibition of schizont-to-ring transition ([2]; 3 µM) [%] | % inhibition of schizont-to-ring transition ([2]; 10 µM) [%] | % growth inhibition [3] [%] |
| --- | --- | --- | --- | --- | --- |
| CCC(C)NCC(O)(c1ccc(Cl)cc1)c1ccc(Cl)cc1 (stereo not given) | 632 | 38.4 | 57 | 63.8 | 74.6 ± 8.3 |
| CCOC(=O)c1c[nH]c2c(CC)cccc2c1=O | 3280 | 28.5 | 28.8 | 40.9 | 29.3 ± 36 |
| COc1cc2c3cc1Oc1c(OC)c(OC)cc4c1C(Cc1ccc(O)c(c1)Oc1ccc(cc1)CC3N(C)CC2)N(C)CC4 (stereo not given) | 1360 | 0.0123 | 3.67 | 27.2 | 51.7 ± 6.6 |
| O=C1CC(O)(C(F)(F)C(F)(F)F)Oc2ccccc21 (stereo not given) | 3000 | 5.46 | 15.3 | 47.7 | 65.3 ± 2.5 |
| FC(F)(F)c1cccc(Nc2nc(-c3ccccc3)nc3ncccc23)c1 |  | 24.9 | 33.8 | 42.3 | 51.1 ± 1.4 |
| O=C(NNc1cc(N2CCCC2)nc(N2CCCC2)n1)c1ccccc1 | 6540 | 16.2 | 24.6 | 62.1 | 27.4 ± 0.88 |
| Cc1cc(Nc2ccc3ccccc3c2)n2ncnc2n1 | 53.7 | 57.1 | 61.7 | 61.5 | 24.1 ± 23 |
| O=C(NCc1ccco1)C1CCN(S(=O)(=O)c2ccc(Cl)cc2)CC1 | 1030 | 21.3 | 34.6 | 57.8 | 55.4 ± 6.6 |
| CCN1CCN(c2cc(C)c3cc(NC(=O)c4ccc(OC)c(OC)c4)ccc3n2)CC1 | 814 | 21.3 | 45.6 | 63.3 | 56.5 ± 4.2 |
| O=C(CCc1ccccc1)c1ccccc1OCC(O)CN1CCCCC1 (stereo not given) | 912 | 19 | 44.6 | 73.3 | 66.1 ± 15 |
| FC(F)(F)c1cccc(CNC2CCN(CCc3ccccc3)CC2)c1 | 201 | 23.2 | 60 | 69.5 | 45.5 ± 8.4 |
| C=CCc1c(C)nc2ccccc2c1O | 2260 | 27.3 | 29.6 | 40.5 | 72.7 ± 2.5 |
| COc1ccc(-c2nc(NC(=O)CS(=O)(=O)c3ccc(F)cc3)sc2C)cc1 | 405 | 9.86 | 32.3 | 43.6 | 69.4 ± 1.6 |
| COc1ccc(C=C2SC(=N)N(c3ccccc3OC)C2=O)cc1 | 1370 | 19.9 | 35.6 | 49.7 | 58.7 ± 3.4 |
| CCCc1c(C)nc2ccc(Br)cc2c1O | 4280 | 17 | 24 | 44.8 | 39.6 ± 25 |
| CCOC(=O)c1ccc2nc(-c3ccccc3)cc(O)c2c1 | 195 | 20.2 | 29.4 | 44.6 | 72.2 ± 6 |
| Cc1cc(C)cc(Nc2cc(C)nc3nc(C(F)(F)F)nn23)c1 | 56.8 | 46.6 | 56.5 | 59.8 | 53.7 ± 4 |
| Cc1[nH]c(-c2ccc(F)cc2)cc1C(=O)NC1CCN(Cc2ccccc2)CC1 | 580 | 25.3 | 47 | 64.1 | 44.1 ± 26 |
| Cc1nc2ccccc2c(O)c1CC=C(Cl)Cl | 4560 | 10.8 | 31.3 | 67.4 | 79.46 ± 0.64 |

| SMILES | EC50 growth inhibition [1] [nM] | % inhibition of schizont-to-ring transition ([2]; 1 µM) [%] | % inhibition of schizont-to-ring transition ([2]; 3 µM) [%] | % inhibition of schizont-to-ring transition ([2]; 10 µM) [%] | % growth inhibition [3] [%] |
| --- | --- | --- | --- | --- | --- |
| Oc1c2c(nc3cc(-c4ccccc4)nn13)CCCC2 | 3790 | 0.423 | 6.47 | 21.9 | 26.5 ± 12 |
| CN(N=O)C1=C(NC2CCCCC2)C(=O)c2ccccc2C1=O | 1520 | 33.3 | 57.9 | 65.4 | 57.2 ± 5.8 |
| COc1cc(OC)cc(N2C(=O)N(Cc3ccc(C(C)(C)C)cc3)c3ccccc3S2(=O)=O)c1 | 3500 | 13.8 | 15.2 | 47.7 | 57.3 ± 12 |
| O=C(Nc1ccc(-c2nc3cc(NC(=O)c4ccc(Cl)cc4)ccc3[nH]2)cc1)c1ccc(Cl)cc1 |  | < 0 | 18.9 | 41.1 | 21.6 ± 3 |
| CCN(CC)CCNc1ccnc2cc3ccccc3cc12 | 192 | 23.6 | 49 | 53.2 | 32.4 ± 7.3 |
| COc1ccc(CNC(=O)c2cc3c(=O)n4ccccc4nc3n(CCc3ccccc3)c2=N)cc1 | 2650 | 9.38 | 17.6 | 47 | 56.9 ± 14 |
| O=C(Nc1ccc(-c2nc3cc4ccccc4cc3[nH]2)cc1)c1cccc(Br)c1 | 4310 | 10.2 | 38.5 | 61.9 | 50.3 ± 8.7 |
| CCOc1ccc(C2N(C)c3ccccc3N2C)cc1 | 5840 | 15.8 | 20.8 | 40.5 | 49.6 ± 43 |
| O=C(NC1CCCC1)c1ccc(N2CCC(NCc3cccc(C(F)(F)F)c3)CC2)cc1 | 2010 | 0.815 | 7.92 | 41.6 | 74.7 ± 1.2 |
| CCCCOC(=O)c1ccc(Nc2cc(C)nc3ccc(OC)cc23)cc1 | 248 | 29 | 59.5 | 65.9 | 69 ± 12 |
| CCOC(=O)C1=C(C)N=c2sc(=Cc3cc(Cl)ccc3O)c(=O)n2C1c1ccc(OC)cc1 (stereo not given) |  | 0.526 | 46.2 | 61.3 | 59.4 ± 6.4 |
| Oc1ccc(C(=C(Cl)Cl)c2ccc(O)cc2)cc1 | 877 | 11.4 | 53.3 | 73.2 | 78.3 ± 3.7 |
| CC(C)CCNCC(O)Cn1c2ccccc2c2ccccc21 (stereo not given) | 520 | 9.61 | 49.4 | 71.7 | 77.4 ± 2.5 |
| Cc1cccc(-n2ncc3c(O)nc(-n4nc(C)cc4NC(=O)c4cc5ccccc5o4)nc32)c1 |  | 16.7 | 23.7 | 27.8 | 30.2 ± 52 |
| CCCN(CCC)CCCNC(=O)c1cc2c(-c3ccc(OC)c(OC)c3)nn(C)c2s1 | 1120 | 14.9 | 37.6 | 68 | 41.4 ± 13 |
| COc1ccc(C2=C(c3ccc(OC)cc3)C3(c4ccccc4)C(=O)C2(c2ccccc2)C2C(=O)N(c4ccc(C)cc4)C(=O)C23)cc1 (stereo not given) |  | < 0 | < 0 | 24.9 | 41.5 ± 7.4 |
| CC(C)(C)c1ccc2c(c1)CN(Cc1ccc(Cl)cc1)CO2 | 1120 | 16.8 | 49.9 | 66.2 | 34.1 ± 8.2 |
| Cc1ccc2cc3c(N)c4c(C)ccc(C)c4nc3nc2c1 | 432 | 29 | 72.1 | 79.8 | 56.3 ± 6.5 |
| Cc1ccc(OCCCCCCNCCO)c(C)c1 | 2870 | 6.39 | 6.91 | 13.8 | 76.2 ± 4.2 |
